# Reference: patent publication US20240043400A1, “Octahydroisoquinolinyl Derivatives” (UCB Biopharma SRL, priority 2020, published 2024)
# How the values were obtained:
# dopamine D1 receptor = target: T1, dopamine D1 receptor (Homo sapiens, UniProt P21728); assay: cAMP HTRF potentiation assay (in the presence of dopamine); assay type: cell-based; conditions: potentiation of cAMP with [EC20] of dopamine (1.1 nM); LMtk (Ltk−) mouse fibroblast cells expressing the dopamine D1 receptor
# T1 construct: host or cells: LMtk (Ltk-) mouse fibroblast cells, kept under Geneticin
# Procedure: The potentiation assay measures the ability of compounds to increase the levels of cAMP produced by a low-threshold concentration of dopamine. The concentration of dopamine used ([EC20]) is designed to produce 20% stimulation compared to the maximal response (100%) seen with increasing the concentration of dopamine. To measure this potentiation we incubate increasing concentrations of the compound with the [EC20] of dopamine and measure the potentiation as increases in cAMP production. The pEC50 of a compound is the −log 10 of the concentration of the compound which produces 50% of the potentiation of the cAMP levels and the Erel is the relative efficacy, defined as the maximal % potentiation produced by the compound compared to the maximal response produced by increasing concentrations of dopamine (Erel of 1=dopamine maximum response).
# Cells were cultured at 37° C. in a humidified atmosphere of 5% CO2. Cells were grown in DMEM-F12+GlutaMAX™-1 medium (GIBCO®, Invitrogen, Merelbeke, Belgium) containing 10% fetal bovine serum (BioWhittaker®, Lonza, Verviers, Belgium), 400 μg/mL Geneticin (GIBCO®), 100 IU/mL Penicillin and 100 IU/mL Streptomycin (Pen-Strep solution, BioWhittaker®).
# The measurement of changes in intracellular cyclic adenosinemonophopshpate (cAMP) was determined using the HTRF cAMP dynamic assay kit from CisBio (Codolet, France). Using homogenous time-resolved fluoresence technology, the assay is based on competition between native cAMP produced by cells and cAMP labelled with the dye d2. The tracer binding is determined by an anti-cAMP antibody labeled with cryptate. The effects of the compound alone (agonism) was determined by performing the assay in the absence of dopamine, whilst the effect of the compound as a positive allosteric modulator (PAM) was determined in the presence of an EC20 concentration of dopamine. Cells (20,000 per well) are incubated in 384 plates for 1 h at rt in a final volume of 20 μLHBSS (Lonza, with calcium, magnesium and HEPES buffer 20 mM, pH 7.4) containing: isobutyl methylxanthine (Sigma, 0.1 mM final), varying concentrations of test compound (typically 10^−9.5 M to 10^−4.5 M) in the presence and absence of dopamine (1.1 nM final). The reaction is then terminated and the cells lysed by adding the d2 detection reagent in lysis buffer (10 μL) and the cryptate reagent in lysis buffer (10 μL) according to manufacturer's instructions. This is then incubated for a further 60 min at rt and changes in HTRF fluorescent emission ratio determined according to manufacturer's instructions using an Envision plate reader (Perkin Elmer, Zaventem, Belgium) with laser excitation. All incubations were performed in duplicate and results were compared to a concentration-effect curve to dopamine. (10^−11 M to 10^−6 M).
# Data was analyzed using Excel and PRISM (GraphPad Software) to obtain pEC50 and Erel using the 4-parameter logistic equation (DeLean et al, 1978) where Erel is the fitted maximal response of the test compound minus basal expressed as a percentage relative to that obtained with dopamine which was defined as 100%.
# [1] = target: T2, human GABAA receptor α1β2 and γ2 subunits (Homo sapiens, UniProt P14867+P18507+P47870); assay: Automated patch clamp studies on the GABAA receptor cells; assay type: cell-based; conditions: 15 μM GABA, Table B
# T2 construct: expressed in transfected cells
# Procedure: CHO-K1 cells stably expressing human GABAA receptor α1β2 and γ2 subunits were used. The cells were harvested using trypsin and maintained in serum-free medium at room temperature. The cells were washed and re-suspended in extracellular solution before testing.
# Experiments on human GABAA (α1β2γ2) channels were conducted using an automated patch clamp assay (lonFlux™ HT). The external solution for recording GABAA currents was composed of sodium chloride 137 mM, potassium chloride 4 mM, calcium chloride 1.8 mM, magnesium chloride 1 mM, HEPES 10 mM, and glucose 10 mM. Both external and internal solutions were titrated with NaOH or KOH to obtain a pH of 7.35 and 7.3, respectively. The internal pipette solution contained potassium fluoride 70 mM, potassium chloride 60 mM, sodium chloride 70 mM, HEPES 5 mM, EGTA 5 mM, and Magnesium ATP 4 mM. The final concentration of vehicle used to dilute compounds was 0.33% DMSO in each well. Bicuculline (0.032 to 100 μM) was used as positive control inhibitor. GABA (15 μM) was used as agonist. All recordings were obtained from a holding potential of −60 mV.
# The compound addition sequence was the following: one addition of the EC80 concentration of GABA was added to establish baseline response. Each concentration of compound was applied for 30 seconds followed by the addition of 15 μM GABA in the presence of the compound for 2 seconds. The process was repeated with the next ascending concentration of compound. Peak inward currents in response to the GABA additions in the presence of a single concentration of compound were measured. All compound data have been normalized to the baseline peak current induced by addition of 15 μM GABA for 2 seconds.
# CYP3A4 = target: T3, CYP3A4 (Homo sapiens, UniProt P08684); assay: In vitro assessment of CYP3A4 inhibition potential using cryopreserved human microsomes; assay type: in vitro ADME; conditions: human, cryopreserved human microsomes (pooled donors), probe midazolam 2.5 μM (1-hydroxymidazolam formation), 20 μM compound, human microsomes 0.25 mg/ml, Table C
# T3 construct: cryopreserved human microsomes (pooled donors); from tissue
# Procedure: The objective of the human microsome assay is to characterize the inhibition potential of Compound of formula (I) by measuring the CYP3A4 activities after its co-incubation with midazolam, a specific CYP3A4 substrate.
# To this aim, cryopreserved human microsomes (pooled donors) are divided on a 48 well collagen coated plate so that the final concentration is 0.25 mg/ml. The UCB compound is then added in the wells at 20 μM concentration in duplicate. After 30 min incubation, midazolam is added at 2.5 μM concentration. After 15 min, an aliquot is removed and placed into an equal volume of methanol containing internal standard. The samples are centrifuged at 2500 rpm at 4° C. for 20 min. An aliquot of supernatant is diluted with deionised water and levels of 1-hydroxymidazolam is quantified using generic LC MS/MS methods.
# The concentrations are compared to those obtained after midazolam incubation at the same concentration but without UCB compound pre-incubation. The results are expressed as % of inhibition.
# T3 sequence (P08684 whole entry): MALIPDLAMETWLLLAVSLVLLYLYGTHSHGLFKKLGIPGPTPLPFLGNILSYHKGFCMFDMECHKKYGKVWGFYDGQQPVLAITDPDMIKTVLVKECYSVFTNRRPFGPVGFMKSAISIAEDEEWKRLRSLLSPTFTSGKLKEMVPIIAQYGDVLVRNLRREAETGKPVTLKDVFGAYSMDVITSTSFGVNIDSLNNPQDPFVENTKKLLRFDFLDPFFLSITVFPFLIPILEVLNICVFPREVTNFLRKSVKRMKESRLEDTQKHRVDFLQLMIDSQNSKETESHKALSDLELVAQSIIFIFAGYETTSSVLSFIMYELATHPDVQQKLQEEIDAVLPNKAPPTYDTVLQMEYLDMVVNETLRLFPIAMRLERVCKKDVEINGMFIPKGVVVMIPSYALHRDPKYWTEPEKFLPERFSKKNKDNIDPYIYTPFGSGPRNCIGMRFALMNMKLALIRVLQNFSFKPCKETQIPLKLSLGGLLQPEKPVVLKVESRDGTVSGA
# T1 sequence (P21728 whole entry): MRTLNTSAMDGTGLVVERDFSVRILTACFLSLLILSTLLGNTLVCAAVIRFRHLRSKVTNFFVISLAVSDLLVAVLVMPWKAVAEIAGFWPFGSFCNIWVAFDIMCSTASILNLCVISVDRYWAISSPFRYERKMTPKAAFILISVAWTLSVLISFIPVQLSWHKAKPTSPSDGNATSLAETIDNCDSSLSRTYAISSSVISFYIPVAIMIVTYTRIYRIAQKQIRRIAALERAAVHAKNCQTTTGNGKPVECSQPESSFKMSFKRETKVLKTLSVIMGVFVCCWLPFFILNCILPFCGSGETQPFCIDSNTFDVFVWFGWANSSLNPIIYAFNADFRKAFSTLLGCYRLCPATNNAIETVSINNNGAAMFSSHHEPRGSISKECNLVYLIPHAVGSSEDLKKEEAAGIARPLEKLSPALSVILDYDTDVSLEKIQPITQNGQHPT
# T2 sequence (P14867 28-456): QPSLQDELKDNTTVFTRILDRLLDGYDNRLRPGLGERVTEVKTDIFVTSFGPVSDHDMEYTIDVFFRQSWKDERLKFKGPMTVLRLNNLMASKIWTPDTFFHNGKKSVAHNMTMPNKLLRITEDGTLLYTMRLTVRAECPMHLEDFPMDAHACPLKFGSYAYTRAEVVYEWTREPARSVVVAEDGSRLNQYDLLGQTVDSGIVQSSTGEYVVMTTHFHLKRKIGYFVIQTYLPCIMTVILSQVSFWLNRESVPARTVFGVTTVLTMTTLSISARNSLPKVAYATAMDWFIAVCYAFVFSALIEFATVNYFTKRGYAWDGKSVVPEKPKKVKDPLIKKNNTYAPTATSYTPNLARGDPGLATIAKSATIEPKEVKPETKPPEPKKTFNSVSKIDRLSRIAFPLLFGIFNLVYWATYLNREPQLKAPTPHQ
# T2 sequence (P47870 25-512 limits assumed): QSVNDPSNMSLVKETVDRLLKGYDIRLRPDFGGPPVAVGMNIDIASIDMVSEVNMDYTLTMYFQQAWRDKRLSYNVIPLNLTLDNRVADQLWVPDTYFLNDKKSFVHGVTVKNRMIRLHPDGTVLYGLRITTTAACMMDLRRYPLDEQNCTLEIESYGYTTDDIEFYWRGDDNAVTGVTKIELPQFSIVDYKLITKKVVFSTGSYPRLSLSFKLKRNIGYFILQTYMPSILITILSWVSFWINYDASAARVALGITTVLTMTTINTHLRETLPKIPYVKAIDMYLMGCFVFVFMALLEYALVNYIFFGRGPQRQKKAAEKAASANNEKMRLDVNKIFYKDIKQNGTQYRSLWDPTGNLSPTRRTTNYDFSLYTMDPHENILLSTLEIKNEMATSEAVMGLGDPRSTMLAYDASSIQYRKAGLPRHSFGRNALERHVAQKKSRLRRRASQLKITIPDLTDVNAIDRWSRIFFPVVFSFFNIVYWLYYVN
# T2 sequence (P18507 40-475): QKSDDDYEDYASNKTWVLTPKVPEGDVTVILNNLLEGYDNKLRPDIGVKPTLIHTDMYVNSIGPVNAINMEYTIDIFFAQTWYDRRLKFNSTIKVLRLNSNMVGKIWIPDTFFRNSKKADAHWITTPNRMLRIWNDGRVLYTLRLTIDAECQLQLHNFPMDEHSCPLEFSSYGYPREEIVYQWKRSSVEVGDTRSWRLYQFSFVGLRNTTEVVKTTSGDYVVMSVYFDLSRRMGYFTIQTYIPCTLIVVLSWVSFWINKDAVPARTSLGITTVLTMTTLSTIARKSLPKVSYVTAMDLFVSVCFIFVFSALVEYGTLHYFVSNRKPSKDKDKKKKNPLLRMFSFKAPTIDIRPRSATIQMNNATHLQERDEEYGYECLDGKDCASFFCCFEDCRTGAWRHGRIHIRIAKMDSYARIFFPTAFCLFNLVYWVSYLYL
EC50 (dopamine D1 receptor) [nM],"% GABAA inhibition ([1]; 10 μM compound, CHO-K1 cells) [%]","inhibition at 15 min, 20 μM (CYP3A4) [%]","inhibition at 10 µM ([1]; CHO-K1, 10 μM compound) [%]",Compound
39.8,−14.1,20 to 40,,"CC(O)c1ncc(Cl)c(CC(=O)N2CC[C@H]3[C@H]([C@H](O)C(F)(F)F)CCC[C@@H]3[C@@H]2C)c1Cl (single isomer, unassigned) [Example 9-A]"
63.1,,70 to 80,6,"C[C@H]1[C@H]2CCC[C@@H]([C@H](O)C(F)(F)F)[C@@H]2CCN1C(=O)Cc1c(Cl)ccc2nnc(Cl)n12 [Example 11, 1-[(1 S,4aR,5R,8aS)-1-methyl-5-[(1 S)-2,2,2-trifluoro-1-hydroxy-ethyl]-3,4,4a,5,6,7,8,8a-octahydro-1H-isoquinolin-2-yl]-2-(3,6-dichloro-[1,2,4]triazolo[4,3-a]pyridin-5-yl)ethanone]"
